In patent publication US20030113281A1, “Assay for identification of compounds that promote melanin production and retinoid-like compounds identified by said assay” (Galderma Research & Development, S.N.C., priority 1998, published 2003):

System: normal human melanocytes
Experiment: Melanin content of normal human melanocytes, normalized to proliferation (MTS)
Assay type: cell-based
Conditions: 5 day treatment, normal human melanocytes from neonatal skin
Procedure: Normal human melanocytes from neonatal skin were used for the assay. For the primary screening, the cells were seeded simultaneously into 96-well plates and 24-well plates appropriately according to the surface area of the wells, and treated with the test compound for 5 days. The addition of the compound to the plates was done using a Robot to ensure accuracy (same amount in each well). At the end of 5 day treatment, the cells in the 96-well plate were treated with MTS solution and the plate was read at 490 nm to determine the effect of the compounds on the growth of the cells. The cells in the 24-well plates were rinsed with PBS, and then lysed with 1N NaOH, and the absorbence of alkali soluble melanin was measured at 405 nm.
The data from the 96-well plate was analyzed to determine the effect of each compound on the proliferation of the cells, and the data from the 24-well plate was used to determine the effect of the compound on the melanin content of the cells. The melanin content was then normalized to the proliferation of the cells.

C=C(c1ccc(C(=O)O)cc1)c1ccc2c(c1)C(C)(C)CCC2(C)C [CD No. 2771, 4-[1-(5,6.7,8-tetrahydro-5,5,8,8-tetramethyl-2-naphthyl)ethenyl]benzoic acid]
Maximum Increase in Melanin Content (Normalized) (at 2 μM): 250% at 2 μM

Cc1cc2c(cc1-c1cccc(C=CC(=O)O)c1)C(C)(C)CCC2(C)C [CD No. 2915, 3-[3-(3,5,5,8,8-pentamethyl-5.6,7.8-tetrahydro-naphthalen-2-yl)-phenyl]-acrylic acid]
Maximum Increase in Melanin Content (Normalized) (at 0.1 μM): 165% at 0.1 μM

CC(=CC(=O)O)c1cccc(-c2cc3c(cc2C)C(C)(C)CCC3(C)C)c1 [CD No. 3206, 3-[3-(3,5.5,8,8-pentamethyl-5,6,7,8-tetrahydro-naphthalen-2-yl)-phenyl]-but-2-enoic acid]
Maximum Increase in Melanin Content (Normalized) (at 0.5 μM): 198% at 0.5 μM
